For assay [1], the target named is T1, long isoform of human D2 receptor (Homo sapiens, UniProt P14416). The assay is described as follows: cAMP HTRF Agonist Assay (DRD2L PathHunter CHO-K1 cells, forskolin-stimulated). The note with it: for Emax: CHO-K1, read-out: cAMP (agonist mode) Emax. Background: In TR-FRET formats the signal depends on donor and acceptor labels being close together.
Experimental: Cell Lines: Activities of the compounds were assessed using a Chinese Hamster Ovary (CHO—K1) cell line that recombinantly expressed the long isoform of human D2 receptor (DRD2L PathHunter cells). The D2 receptor DNA sequence was modified to contain a “ProLink” at its C-terminus which allowed complementation with an “enzyme acceptor” (EA)-tagged β-arrestin protein. The recruitment of the O-arrestin by the D2 receptor led to complementation of the ProLink and EA and formation of active β-galactosidase which generated a D2-specific signal that was measured. The cAMP assay was measured in the same D2-expressing cell line. The D2 receptor inhibited cAMP formation so that the basal levels of cAMP were increased by the addition of an adenylate cyclase stimulator, forskolin.
cAMP HTRF Agonist Assay: Two days prior to testing, a vial of high density stock of DRD2L PathHunter cells was thawed, and cells were diluted into 10 mL of growth media (Ham's F12/10% HI FBS/1% PSG) and used to seed a T225 flask containing 50 mL of growth media. Cells were cultured for 2 days.
On the day of the assay, cells were dissociated in 5 mL cell dissociation buffer (enzyme free—Invitrogen) for 10-15 minutes at 37° C. Dissociated cells were diluted with 10 mL of growth media and counted. Cell counts were routinely ˜2×10^7 per T225. Cells were then pelleted at 1500 rpm for 5 min. Supernatant was aspirated, and cells were re-suspended in HBSS/20 mM Hepes, pH 7.4 to a cell density of 1×10^6/mL.
cAMP levels were determined using the Cisbio HTRF method. HRTF reagents (cAMP-HTRF acceptor fluorophore (d2) conjugate and cryptate-labeled anti-cAMP antibody) were prepared according to maunfacturers instructions. 5 μL of each were added to each well of an assay plate and incubated for 1 h at RT. The plate was then read on an Envision reader using the HTRF protocol, and data were exported for analysis.
The agonist Emax results were expressed as a percent of the dopamine control response ((measured specific response/control specific agonist response)×100) obtained in the presence of test article. The EC50 values (concentration producing a half-maximal specific response) were determined by non-linear regression analysis of the concentration-response curves.
Assay [2] concerns the target T1, long isoform of human D2 receptor. The assay is described as follows: Arrestin Antagonist Assay (DRD2L PathHunter CHO-K1 cells, vs EC80 dopamine). The note with it: for Emax: CHO-K1, read-out: β-arrestin (antagonist mode) Imax.
Experimental: Cell Lines: Activities of the compounds were assessed using a Chinese Hamster Ovary (CHO—K1) cell line that recombinantly expressed the long isoform of human D2 receptor (DRD2L PathHunter cells). The D2 receptor DNA sequence was modified to contain a “ProLink” at its C-terminus which allowed complementation with an “enzyme acceptor” (EA)-tagged β-arrestin protein. The recruitment of the O-arrestin by the D2 receptor led to complementation of the ProLink and EA and formation of active β-galactosidase which generated a D2-specific signal that was measured.
Arrestin Antagonist Assay: One day prior to testing, a vial of high density stock of DRD2L PathHunter cells was thawed, and 1×10^7 cells diluted into 40 mL of growth media (Ham's F12/10% HI FBS/1% PSG). 20 μL cells per well were seeded directly into assay plates, and the plates were allowed to rest for 1 h at RT before incubating in a plate incubator overnight.
The plate was incubated for 30 min at 37° C. 15 μL PathHunter detection reagent was added to each well of the assay plate, which was then covered and incubated for 1 h at RT. The plate was read on an Envision reader using the Luminescence protocol, and the data were exported for analysis.
The IC50 values (concentration producing a half-maximal inhibitory response) were determined by non-linear regression analysis of the concentration-response curves.
The target is the same in assay [3]. As to the kind of experiment: Arrestin Agonist Assay (DRD2L PathHunter CHO-K1 cells, β-arrestin recruitment). The note with it: for Emax: CHO-K1, read-out: β-arrestin (agonist mode) Emax. (Arrestin recruitment assays detect the binding of arrestin to an activated receptor.)

This is an account of results in patent publication US9951088B2, “D2 receptor modulators and methods of use thereof in the treatment of diseases and disorders” (SUNOVION PHARMACEUTICALS INC., priority 2012, dated 2018).

Molecules are shown by their SMILES.

As a reminder, the IC50 is the point on the concentration scale where inhibition reaches its midpoint. The low end stands for inhibition by little substance, the high end for a need for much substance. Usually EC50 stands for the concentration at which the effect is half-maximal. A high value points to a less potent agent.

T1 sequence (P14416 whole entry, canonical isoform): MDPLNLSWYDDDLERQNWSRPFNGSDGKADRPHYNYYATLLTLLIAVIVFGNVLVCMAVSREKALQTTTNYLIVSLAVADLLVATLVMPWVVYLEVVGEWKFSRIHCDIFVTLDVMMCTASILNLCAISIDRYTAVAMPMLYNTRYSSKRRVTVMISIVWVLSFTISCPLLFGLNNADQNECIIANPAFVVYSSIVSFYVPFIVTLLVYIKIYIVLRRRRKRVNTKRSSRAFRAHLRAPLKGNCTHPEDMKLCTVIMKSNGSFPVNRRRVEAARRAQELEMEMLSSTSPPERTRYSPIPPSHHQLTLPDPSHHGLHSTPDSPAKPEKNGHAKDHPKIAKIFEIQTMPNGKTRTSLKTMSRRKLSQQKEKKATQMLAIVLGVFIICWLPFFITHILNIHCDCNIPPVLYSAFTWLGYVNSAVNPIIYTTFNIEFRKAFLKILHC

For `O=c1ccc2ccc(OCCCCN3CCc4ccsc4C3)nc2[nH]1` [Compound 54, 7-(4-(4,5-dihydrothieno[2,3-c]pyridin-6(7H)-yl)butoxy)-1,8-naphthyridin-2(1H)-one], in assay [1], the IC50 is over 10000 nM and the Emax is under 10%. Besides, in assay [2], the IC50 is under 10 nM and the Emax was over 75%. In assay [3], the EC50 was over 10000 nM and the Emax is under 10%.

Take `O=C1CCc2ccc(OCCCCN3CCc4ncncc4C3)cc2N1` [Compound 23, 7-(4-(7,8-dihydropyrido[4,3-d]pyrimidin-6(5H)-yl)butoxy)-3,4-dihydroquinolin-2(1H)-one]: in assay [1], the IC50 lay in the range of 100 to 1000 nM and the Emax was in the range of 50 to 75%. Moreover, in assay [2], the IC50 lay within 1000 to 10000 nM and the Emax was in the range of 25 to 50%. In addition, in assay [3], the EC50 was in the range of 100 to 1000 nM and the Emax fell in the range of 10 to 25%.

Take `c1ccc2c(N3CCN(CCCCOc4ccc5cn[nH]c5n4)CC3)cccc2c1` [Compound 2, 6-(4-(4-(naphthalen-1-yl)piperazin-1-yl)butoxy)-1H-pyrazolo[3,4-b]pyridine]: the 50% inhibitory concentration (IC50) fell in the range of 10 to 100 nM in assay [1] and 100 to 1000 nM in assay [2]. Also, the Emax was in the range of 10 to 25% in assay [1], 50 to 75% in assay [2] and 10 to 25% in assay [3]. For the same compound, the EC50 in assay [3] lay in the range of 10 to 100 nM.

In the case of `Oc1cccc2ccc(OCCCCN3CCc4cc(F)ccc4C3)nc12` [Compound 16, 2-(4-(6-fluoro-3,4-dihydroisoquinolin-2(1H)-yl)butoxy)quinolin-8-ol], the IC50 is over 10000 nM in assay [1] and 100 to 1000 nM in assay [2]. The Emax in assay [1] is under 10%; in assay [2], over 75%; in assay [3], under 10%. The compound further showed an EC50 in assay [3] of over 10000 nM.

As to `N#Cc1cccc2c1CN(CCCCOc1ccc3ccc(=O)[nH]c3n1)CC2` [Compound 64, 2-(4-((7-oxo-7,8-dihydro-1,8-naphthyridin-2-yl)oxy)butyl)-1,2,3,4-tetrahydroisoquinoline-8-carbonitrile], in assay [1], the IC50 was under 10 nM and the Emax was in the range of 25 to 50%. In addition, in assay [2], the IC50 fell in the range of 10 to 100 nM and the Emax is over 75%. Moreover, in assay [3], the EC50 was under 10 nM and the Emax was in the range of 10 to 25%.

`O=C1CCc2ccc(OCCCCN3CCc4c(cccc4C(F)(F)F)C3)nc2N1` [Compound 77, 7-(4-(5-(trifluoromethyl)-3,4-dihydroisoquinolin-2(1H)-yl)butoxy)-3,4-dihydro-1,8-naphthyridin-2(1H)-one]: in assay [1], the IC50 is 10 to 100 nM and the Emax lay in the range of 50 to 75%. Moreover, in assay [2], the IC50 was over 10000 nM and the Emax is under 10%. Also, in assay [3], the EC50 is 100 to 1000 nM and the Emax was 50 to 75%.

Turning to `COc1ccc2c(c1)CCN(CCCCOc1ccc3c(n1)NC(=O)CC3)C2` [Compound 71, 7-(4-(6-methoxy-3,4-dihydroisoquinolin-2(1H)-yl)butoxy)-3,4-dihydro-1,8-naphthyridin-2(1H)-one], in assay [1], the IC50 was over 10000 nM and the Emax is under 10%. In assay [2], the IC50 lay in the range of 10 to 100 nM and the Emax is over 75%. For the same compound, in assay [3], the EC50 is over 10000 nM and the Emax is under 10%.

`Oc1cccc2ccc(OCCCCN3CCc4c(Cl)cccc4C3)nc12` [Compound 20, 2-(4-(5-chloro-3,4-dihydroisoquinolin-2(1H)-yl)butoxy)quinolin-8-ol]: the figures for the IC50 in assay [1] and in assay [2] were 10 to 100 nM and over 10000 nM, respectively. Also, the figures for the Emax in assay [1], in assay [2] and in assay [3] were 50 to 75%, under 10% and over 75%, respectively. Further, the EC50 in assay [3] lay within 100 to 1000 nM.

Regarding `Clc1ccccc1N1CCN(CCCCOc2ccc3cn[nH]c3c2)CC1` [Compound 97, 6-(4-(4-(2-chlorophenyl)piperazin-1-yl)butoxy)-1H-indazole], the IC50 in assay [1] was under 10 nM; in assay [2] it was 10 to 100 nM. The Emax lay within 50 to 75% in assay [1], 50 to 75% in assay [2] and 10 to 25% in assay [3]. The EC50 in assay [3] is under 10 nM.

As to `O=C1CCc2ccc(OCCCCN3CCc4sccc4C3)nc2N1` [Compound 69, 7-(4-(6,7-dihydrothieno[3,2-c]pyridin-5(4H)-yl)butoxy)-3,4-dihydro-1,8-naphthyridin-2(1H)-one], the IC50 is over 10000 nM in assay [1] and 10 to 100 nM in assay [2]. Moreover, the Emax is under 10% in assay [1], over 75% in assay [2] and under 10% in assay [3]. For the same compound, the EC50 in assay [3] is over 10000 nM.

Consider `Clc1cccc(N2CCN(CCCCOc3ccc4cn[nH]c4n3)CC2)c1Cl` [Compound 1, 6-(4-(4-(2,3-dichlorophenyl)piperazin-1-yl)butoxy)-1H-pyrazolo[3,4-b]pyridine], for which the IC50 in assay [1] and in assay [2] was under 10 nM in each case. The Emax in assay [1] was 25 to 50%; in assay [2] it was over 75%; in assay [3] it was under 10%. The compound further showed an EC50 in assay [3] of over 10000 nM.

In the case of `CCOc1ccccc1N1CCN(CCCCOc2ccc3cn[nH]c3c2)CC1` [Compound 93, 6-(4-(4-(2-ethoxyphenyl)piperazin-1-yl)butoxy)-1H-indazole], the values for the IC50 in assay [1] and in assay [2] were under 10 nM and 10 to 100 nM, respectively. Besides, the Emax in assay [1] is 25 to 50%; in assay [2], over 75%; in assay [3], 10 to 25%. In assay [3], the EC50 is under 10 nM.

Take `O=c1ccc2ccc(OCCCCN3CCc4cc(F)ccc4C3)nc2[nH]1` [Compound 56, 7-(4-(6-fluoro-3,4-dihydroisoquinolin-2(1H)-yl)butoxy)-1,8-naphthyridin-2(1H)-one]: in assay [1], the half-maximal inhibitory concentration (IC50) was over 10000 nM and the Emax was under 10%. For the same compound, in assay [2], the IC50 is under 10 nM and the Emax is over 75%. Further, in assay [3], the EC50 was over 10000 nM and the Emax was under 10%.

For `CCn1cc2c(n1)CCN(CCCCOc1ccc3c(c1)NC(=O)CC3)C2` [Compound 34, 7-(4-(2-ethyl-6,7-dihydro-2H-pyrazolo[4,3-c]pyridin-5(4H)-yl)butoxy)-3,4-dihydroquinolin-2(1H)-one], in assay [1], the IC50 was 100 to 1000 nM and the Emax lay in the range of 50 to 75%. For the same compound, in assay [2], the IC50 was over 10000 nM and the Emax is under 10%. Moreover, in assay [3], the EC50 is 100 to 1000 nM and the Emax lay in the range of 50 to 75%.

In the case of `Oc1cccc2ccc(OCCCCN3CCc4cccc(C(F)(F)F)c4C3)nc12` [Compound 21, 2-(4-(8-(trifluoromethyl)-3,4-dihydroisoquinolin-2(1H)-yl)butoxy)quinolin-8-ol], the IC50 in assay [1] was under 10 nM; in assay [2], 100 to 1000 nM. Besides, the Emax in assay [1] was 25 to 50%; in assay [2], over 75%; in assay [3], under 10%. This compound showed an EC50 in assay [3] of over 10000 nM.

For the compound `COc1cccnc1N1CCN(CCCCOc2ccc3cccc(O)c3n2)CC1` [Compound 9, 2-(4-(4-(3-methoxypyridin-2-yl)piperazin-1-yl)butoxy)quinolin-8-ol], the IC50 in assay [1] is under 10 nM; in assay [2], 10 to 100 nM. Further, the values for the Emax in assay [1], in assay [2] and in assay [3] were 25 to 50%, over 75% and under 10%, respectively. The same compound gave an EC50 in assay [3] of over 10000 nM.

Regarding `Oc1cccc2ccc(OCCCCN3CCN(c4ccccn4)CC3)nc12` [Compound 8, 2-(4-(4-(pyridin-2-yl)piperazin-1-yl)butoxy)quinolin-8-ol], in assay [1], the IC50 is under 10 nM and the Emax is over 75%. Moreover, in assay [2], the IC50 was over 10000 nM and the Emax was under 10%. In assay [3], the EC50 was in the range of 10 to 100 nM and the Emax was over 75%.

Turning to `O=c1ccc2ccc(OCCCCN3CCc4sccc4C3)nc2[nH]1` [Compound 53, 7-(4-(6,7-dihydrothieno[3,2-c]pyridin-5(4H)-yl)butoxy)-1,8-naphthyridin-2(1H)-one], in assay [1], the IC50 was under 10 nM and the Emax was 10 to 25%. Moreover, in assay [2], the IC50 lay in the range of 10 to 100 nM and the Emax is over 75%. Moreover, in assay [3], the EC50 is over 10000 nM and the Emax is under 10%.

Take `O=C1CCc2ccc(OCCCCN3CCc4nn(-c5ccccc5F)cc4C3)cc2N1` [Compound 35, 7-(4-(2-(2-fluorophenyl)-6,7-dihydro-2H-pyrazolo[4,3-c]pyridin-5(4H)-yl)butoxy)-3,4-dihydroquinolin-2(1H)-one]: in assay [1], the IC50 was over 10000 nM and the Emax was under 10%. Further, in assay [2], the IC50 lay within 10 to 100 nM and the Emax was over 75%. In assay [3], the EC50 was over 10000 nM and the Emax is under 10%.

Turning to `N#Cc1cccc2c1CCN(CCCCOc1ccc3c(n1)NC(=O)CC3)C2` [Compound 78, 2-(4-((7-oxo-5,6,7,8-tetrahydro-1,8-naphthyridin-2-yl)oxy)butyl)-1,2,3,4-tetrahydroisoquinoline-5-carbonitrile], the figures for the IC50 in assay [1] and in assay [2] were 10 to 100 nM and over 10000 nM, respectively. Also, the Emax is 50 to 75% in assay [1], under 10% in assay [2] and 50 to 75% in assay [3]. The same compound registered an EC50 in assay [3] of 10 to 100 nM.

On to `Oc1cccc2ccc(OCCCCN3CCc4ccccc4C3)nc12` [Compound 12, 2-(4-(3,4-dihydroisoquinolin-2(1H)-yl)butoxy)quinolin-8-ol], for which, in assay [1], the IC50 was over 10000 nM and the Emax was under 10%. For the same compound, in assay [2], the IC50 is 1000 to 10000 nM and the Emax was over 75%. In addition, in assay [3], the EC50 was in the range of 10 to 100 nM and the Emax was 10 to 25%.

In the case of `O=c1ccc2ccc(OCCCCN3CCc4cc(C(F)(F)F)ccc4C3)nc2[nH]1` [Compound 58, 7-(4-(6-(trifluoromethyl)-3,4-dihydroisoquinolin-2(1H)-yl)butoxy)-1,8-naphthyridin-2(1H)-one], in assay [1], the IC50 was under 10 nM and the Emax was in the range of 25 to 50%. In assay [2], the half-maximal inhibitory concentration (IC50) fell in the range of 10 to 100 nM and the Emax is over 75%. Also, in assay [3], the EC50 is under 10 nM and the Emax lay in the range of 10 to 25%.
